Where a SMILES comes first, the peptide text is derived from it. Bridges are numbered along the chain shown (N, C = ends).

Results on one molecule are retold here after paper PMC7269146, “Jingzhaotoxin-X, a gating modifier of Kv4.2 and Kv4.3 potassium channels purified from the venom of the Chinese tarantula Chilobrachys jingzhao” (The Journal of Venomous Animals and Toxins Including …, 2020).

Assay [1] has as its system Kv1.2. In words: microelectrode voltage-clamp, Xenopus laevis oocytes, Kv1.2. In kind it is cell-based. The note with it: 10 μM, 300-ms depolarization to +20 mV from -90 mV, pH 7.5, 19-23°C, n = 3. The procedure: Briefly, plasmids were linearized, and transcription was carried out according to the standardized protocol. Afterwards, the capped cRNAs that encoded the related ion channels were prepared. To conduct transcription in vitro, firstly, NotL was utilized to linearize plasmids pCI that contained both Kv1.1 (Accession: NM_010595.3) and Kv2.1 (Accession: AF026005.1), whereas SphI was adopted to linearize plasmid PcDNA3 containing Kv1.2 (Accession: NM_012970.3) gene. […] Thereafter, the linearized plasmids were used as the templates to synthesize cRNAs in vitro using the large-scale T7 mMESSAGE mMACHINE transcription kit (Ambion, USA).
A mature female X. laevis was placed on the ice for anesthesia, and then the Xenopus laevis oocytes at stage IV-VI were extracted. Subsequently, those extracted oocytes were treated by collagenase (1 mg/mL) contained within the calcium-depleted ND96 solution (containing 96 mM NaCl, 10 mM HEPES, 1 mM MgCl2, and 2 mM KCl) for defolliculation. […]
Firstly, the effects of JZTX-X on the isoforms of potassium channels (including Kv1.1-1.3, Kv2.1, as well as Kv4.2-4.3) contained within the X. laevis oocytes were investigated through the microelectrode voltage-clamp approach. […] We also determined the effects of JZTX-X on Ito potassium channels in rat DRG neurons; those current amplitudes were inhibited by 54.4±6.8% when 500 nM JZTX-X was applied (Fig. 3K, n = 5).

Assay [2] concerns HVA Cav channels. In words: whole-cell voltage-clamp, HVA Cav currents of rat DRG neurons. In kind it is cell-based. To be noted: 10 μM, n = 3.

On to `CC(C)C[C@@H]1NC(=O)[C@H](CCCCN)NC(=O)[C@H](Cc2ccc(O)cc2)NC(=O)[C@@H]2CSSC[C@@H]3NC(=O)[C@H](Cc4ccc(O)cc4)NC(=O)[C@H](Cc4ccccc4)NC(=O)CNC(=O)[C@H](C)NC(=O)[C@H](CSSC[C@H](NC(=O)[C@@H](N)CC(C)C)C(=O)N[C@@H](CO)C(=O)N[C@@H](CCCNC(=N)N)C(=O)N[C@@H](CCC(=O)O)C(=O)NCC(=O)N[C@@H](CCC(=O)O)C(=O)N[C@@H](Cc4ccccc4)C(=O)N2)NC(=O)[C@H](CSSC[C@@H](C(=O)N[C@@H](Cc2ccc(O)cc2)C(=O)N[C@@H](CCCNC(=N)N)C(=O)N[C@@H](CC(N)=O)C(=O)O)NC(=O)[C@H](Cc2c[nH]cn2)NC(=O)[C@H](CC(C)C)NC(=O)[C@H](C(C)C)NC(=O)[C@H](Cc2ccccc2)NC(=O)[C@H](C)NC(=O)[C@H](CCCCN)NC3=O)NC(=O)[C@H](CCCCN)NC(=O)[C@H](CCCNC(=N)N)NC1=O` [JZTX-X, Jingzhaotoxin-X] (H-LCSREGEFCYKLRKCCAGFYCKAFVLHCYRN-OH; disulfide 2-16, 9-21, 15-28; N-terminus assumed), for which, in assay [1], the “inhibition of Kv1.2 current” value is given as “less than 5%”. The “inhibition of HVA Cav current” value in assay [2] is “less than 5%”.
